Source: ChEMBL document CHEMBL4610008, “Thiophene bioisosteres of GluN2B selective NMDA receptor antagonists: Synthesis and pharmacological evaluation of [7]annuleno[b]thiophen-6-amines” (Bioorg Med Chem, 2020)

How the values were obtained:
[1] = Selectivity index, ratio of Ki for sigma2 receptor in rat liver membranes to Ki for human GluN2B expressed in mouse L(tk-) cell membranes co-expressing GluN1a; type: cell-based
[2] = biological target: Glutamate receptor ionotropic, NMDA 2B (Homo sapiens, UniProt Q05586+Q13224); assay: Displacement of [3H]ifenprodil from human recombinant GluN2B expressed in mouse L(tk-) cell membranes co-expressing GluN1a incubated for 120 mins by scintillation counting method
[3] = Selectivity index, ratio of Ki for sigma1 receptor in guinea pig brain membranes to Ki for human GluN2B expressed in mouse L(tk-) cell membranes co-expressing GluN1a; type: cell-based
[4] = biological target: T1, Sigma intracellular receptor 2 (Rattus norvegicus, UniProt Q5U3Y7); assay: Displacement of [3H]-di-o-tolylguanidine from sigma2 receptor in rat liver membranes incubated for 120 mins in the presence of sigma1 receptor ligand (+)-pentazocine by scintillation counting method; type: cell membranes, Membrane
T1 sequence (Q5U3Y7 whole entry): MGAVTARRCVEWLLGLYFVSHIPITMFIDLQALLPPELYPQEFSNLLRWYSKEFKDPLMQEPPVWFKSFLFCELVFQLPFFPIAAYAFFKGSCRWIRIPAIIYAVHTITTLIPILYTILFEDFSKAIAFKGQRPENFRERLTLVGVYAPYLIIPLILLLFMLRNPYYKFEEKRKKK

[5] = biological target: Sigma non-opioid intracellular receptor 1 (Cavia porcellus, UniProt Q60492); assay: Displacement of [3H]-(+)-pentazocine from sigma1 receptor in guinea pig brain membranes incubated for 120 mins by scintillation counting method; type: cell membranes, Membrane
[6] = Cytoprotection against glutamate/glycine-induced cytotoxicity against mouse LTK cells expressing GluN1a/GluN2B assessed as inhibition of cell death incubated for 12 hrs by LDH assay; type: functional, cell-based

Glutamate receptor ionotropic, NMDA 2B, sequence (Q13224 whole entry, one chain of several): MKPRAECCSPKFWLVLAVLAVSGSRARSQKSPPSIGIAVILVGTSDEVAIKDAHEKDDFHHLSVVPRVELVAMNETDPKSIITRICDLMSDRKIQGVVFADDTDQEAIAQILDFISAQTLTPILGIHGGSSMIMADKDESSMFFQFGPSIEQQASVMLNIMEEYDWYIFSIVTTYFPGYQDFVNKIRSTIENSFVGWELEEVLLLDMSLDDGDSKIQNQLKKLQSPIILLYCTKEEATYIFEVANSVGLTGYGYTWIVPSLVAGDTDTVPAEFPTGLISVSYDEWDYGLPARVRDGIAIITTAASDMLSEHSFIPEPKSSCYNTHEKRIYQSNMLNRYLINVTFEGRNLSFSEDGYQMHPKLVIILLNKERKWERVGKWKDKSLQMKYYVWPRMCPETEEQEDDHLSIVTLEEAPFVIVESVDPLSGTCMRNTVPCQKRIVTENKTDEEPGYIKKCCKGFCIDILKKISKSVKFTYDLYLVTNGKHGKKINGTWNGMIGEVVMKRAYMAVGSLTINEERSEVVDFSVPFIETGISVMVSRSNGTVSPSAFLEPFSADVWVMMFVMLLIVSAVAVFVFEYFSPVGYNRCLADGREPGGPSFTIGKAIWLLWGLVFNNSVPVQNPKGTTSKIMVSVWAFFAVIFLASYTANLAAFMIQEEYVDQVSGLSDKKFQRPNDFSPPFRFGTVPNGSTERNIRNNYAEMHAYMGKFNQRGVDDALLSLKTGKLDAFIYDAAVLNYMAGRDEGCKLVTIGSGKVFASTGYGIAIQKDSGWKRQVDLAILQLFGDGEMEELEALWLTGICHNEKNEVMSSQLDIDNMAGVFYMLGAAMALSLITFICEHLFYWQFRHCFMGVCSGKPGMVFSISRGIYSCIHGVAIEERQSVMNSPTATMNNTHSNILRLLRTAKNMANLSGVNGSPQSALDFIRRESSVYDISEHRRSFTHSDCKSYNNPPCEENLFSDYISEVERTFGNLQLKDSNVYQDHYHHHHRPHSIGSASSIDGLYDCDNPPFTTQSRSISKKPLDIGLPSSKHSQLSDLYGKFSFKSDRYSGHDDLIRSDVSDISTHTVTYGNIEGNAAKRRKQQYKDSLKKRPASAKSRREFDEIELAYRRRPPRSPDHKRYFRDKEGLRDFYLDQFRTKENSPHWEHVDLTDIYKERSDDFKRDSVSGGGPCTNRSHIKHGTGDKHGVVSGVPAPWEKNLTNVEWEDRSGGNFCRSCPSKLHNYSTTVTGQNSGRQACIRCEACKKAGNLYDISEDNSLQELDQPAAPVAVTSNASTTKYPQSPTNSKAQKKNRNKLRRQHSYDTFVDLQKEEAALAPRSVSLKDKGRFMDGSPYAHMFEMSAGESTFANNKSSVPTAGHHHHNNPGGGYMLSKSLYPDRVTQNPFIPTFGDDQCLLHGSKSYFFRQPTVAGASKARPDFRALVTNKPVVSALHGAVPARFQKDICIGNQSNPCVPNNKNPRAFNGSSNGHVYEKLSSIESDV
Sigma non-opioid intracellular receptor 1, sequence (Q60492 whole entry): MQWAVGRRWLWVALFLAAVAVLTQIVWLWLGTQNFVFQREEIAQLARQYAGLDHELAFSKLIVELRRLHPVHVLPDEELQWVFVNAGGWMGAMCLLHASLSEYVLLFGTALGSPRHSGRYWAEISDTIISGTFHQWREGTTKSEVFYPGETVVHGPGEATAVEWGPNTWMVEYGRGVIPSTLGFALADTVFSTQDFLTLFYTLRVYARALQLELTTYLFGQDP

Structure (SMILES) | Ratio Ki [1] | Ki [2] [nM] | Ratio Ki [3] | Ki [4] [nM] | Ki [5] [nM] | IC50 [6] [nM]
CN(CCCCc1ccccc1)C1CCc2ccsc2CC1 (configuration not stated) | 1.5 to 2 | 9 | 1.5 to 2 | 12 | 17 | 
CN(CCCc1ccccc1)C1CCc2ccsc2CC1 (configuration not stated) | 2 | 6 | 2 | 13 | 10 | 
CN(CCCc1ccccc1)C1CCc2cc(CO)sc2CC1 (configuration not stated) |  | 141 |  | 21 | 6.4 | 
CCN(Cc1ccccc1)C1CCc2ccsc2CC1 (configuration not stated) |  | 61 |  | 149 | 60 | 
c1ccc(CCCNC2CCc3ccsc3CC2)cc1 (configuration not stated) |  | 5.9 |  | 5.1 | 187 | 
Brc1cc2c(s1)CCC(NCCCCc1ccccc1)CC2 (configuration not stated) |  | 23 |  | 13 | 14 | 
CCN(CCCc1ccccc1)C1CCc2ccsc2CC1 (configuration not stated) |  | 51 |  | 33 | 17 | 
OCc1cc2c(s1)CCC(NCCCc1ccccc1)CC2 (configuration not stated) |  | 183 |  | 30 | 61 | 
Oc1ccc(-c2cc3c(s2)CCC(NCCCc2ccccc2)CC3)cc1 (configuration not stated) |  | 60 |  | 63 | 181 | 
CCN(CCCCc1ccccc1)C1CCc2ccsc2CC1 (configuration not stated) |  | 33 |  | 46 | 12 | 
CN(Cc1ccccc1)C1CCc2ccsc2CC1 (configuration not stated) |  | 72 |  | 91 | 49 | 
c1ccc(CCNC2CCc3ccsc3CC2)cc1 (configuration not stated) |  | 33 |  | 56 | 133 | 
COc1ccc2c(c1)CC[C@H](NCCCc1ccccc1)C[C@@H]2O (relative stereo) |  |  |  |  |  | 12
CN(CCc1ccccc1)C1CCc2ccsc2CC1 (configuration not stated) |  | 130 |  | 63 | 42 | 
Brc1cc2c(s1)CCC(NCCCc1ccccc1)CC2 (configuration not stated) | 3 | 13 | 3 | 43 | 41 | 
OCc1cc2c(s1)CCC(NCCCCc1ccccc1)CC2 (configuration not stated) |  | 764 |  | 73 | 84 | 
CCN(CCc1ccccc1)C1CCc2ccsc2CC1 (configuration not stated) |  | 196 |  | 141 | 59 | 
CN(CCc1ccccc1)C1CCc2cc(CO)sc2CC1 (configuration not stated) |  | 726 |  | 48 | 56 | 
Clc1ccc2c(c1)CCC(NCCCc1ccccc1)CC2 (configuration not stated) |  | 2.1 |  |  |  | 
c1ccc(CCCCNC2CCc3ccsc3CC2)cc1 (configuration not stated) |  | 11 |  | 5.7 | 62 | 
